Laboratory results: US12358949B2, “Defensin fragments for use in therapy or prophylaxis” (priority 2019, dated 2025)
“Also recorded” adds a separate entry of the source. Like-named read-outs stand apart in the source and are kept apart here. Where a SMILES comes first, the peptide text is derived from it. Bridges are numbered along the chain shown (N, C = ends).

Columns and labels:
Type in all cases: cell-based
[1] = test system: E. coli MC1000; experiment: Transmission electron microscopy of peptide treated bacteria; settings: 200 μg/ml, 2 hours
Experimental: Transmission electron microcscopy experiments were performed as previously described^11. 6×10^8 cfu E. coli MC1000 was incubated with 200 μg/ml of each peptide for 2 hours. Bacteria were fixed in Karnovsky's fixative, embedded in agarose, coagulated, cut in small blocks and fixed again in Karnovsky's solution. After post-fixation and embedding in glycid ether blocks were cut using an ultra-microtome. Sections (30 nm) were mounted on copper grids and analyzed using a Zeiss LIBRA 120 transmissions electron microscope.

[2] = test system: commensal bacteria; experiment: Radial diffusion assay, HD-5 fragments; settings: 4 μg fragment, 2 μg full-length peptide; commensal bacteria (FIG. 3)
Experimental: In the RDA 2 μg of the full length and 4 μg of each fragment were used. An inhibition zone greater than 5 mm was determined as high activity, between 2.5 and 5 mm as low activity and 2.5 mm were the diameter of the punched well and therefore no activity.
(§1) Antimicrobial activity of all peptides was tested with a modified radial diffusion assay from Lehrer et al^12 Shortly described, log-phase bacteria grew (anaerobic bacteria with AnaeroGen, Oxoid in anaerobic jars) in liquid tryptic soy broth (TSB) (Becton Dickinson). After several wash steps in 10 mM sodium phosphate buffer pH 7.4, 4×10^6 cfu/ml was used per assay. To measure the antibacterial effect of the identified peptide fragments, the bacteria were incubated in 10 mM sodium phosphate (pH 7.4) containing 0.3 mg/ml TSB powder and 1% (w/v) low EEO-agarose (Applichem). Peptide fragments were then pipetted into punched wells and allowed to diffuse for 3 hours at 37° C. After that a nutrient rich gel with 6% TSB (w/v) and 1% agarose in 10 mM sodium phosphate buffer was poured on top of the first gel. After 24 hours the inhibition zones were measured. […] All experiments were carried out at least three times.

[3] = test system: pathogenic bacteria; experiment: Radial diffusion assay, HD-5 fragments; settings: pathogenic Gram-positive and Gram-negative bacteria (FIG. 4)
Experimental: A heat map system with high activity (inhibition zone in the RDA>5 mm), low activity (2.5 to 5 mm) and no activity (2.5 mm) was used.
as §1

[4] = test system: E. faecium 475747
Experimental: (§2) The tested bacteria were incubated overnight in 1×TSB broth, centrifuged and washed with 10 mM sodium phosphate buffer containing 1% (w/v) TSB broth. 5×10^5 cfu/ml bacteria were mixed with different peptide concentrations in 10 mM sodium phosphate buffer with 1% (w/v) TSB (final volume 100 μl) and incubated for 2 hours at 37° C. Afterwards we added 100 μl 2×TSB broth and we measured the optical density at 600 nm (Spark 10M, Tecan, Austria). Bacterial growth was monitored for 12 hours, growing at 37° C. with shaking during the measurements each 30 minutes, except for Akkermansia muciniphila which were incubated at 37° C. in an anaerobic jar and growth was measured after 72 hours.

[5] = test system: A. baumannii 4-MRGN
Experimental: as §2

[6] = test system: P. aeruginosa ATCC 27853
Experimental: as §2

[7] = test system: C. albicans 529L
[8] = test system: P. aeruginosa XPAT1
Experimental: as §2

[9] = test system: E. coli JM83
Experimental: as §2

[10] = test system: S. aureus ATCC 25923
Experimental: as §2

[11] = test system: P. aeruginosa 4-MRGN
Experimental: as §2

[12] = test system: Y. enterocolitica
Experimental: as §2

[13] = test system: P. aeruginosa XPAT2
Experimental: as §2

[14] = test system: K. pneumoniae DSM 30104
Experimental: as §2

[15] = test system: E. faecium DSM 20477
Experimental: as §2

[16] = test system: K. pneumoniae 3-MRGN; settings: K. pneumoniae 3-MRGN; after 12 hours
Experimental: as §2

[17] = test system: A. baumannii DSM 30007
Experimental: as §2

[18] = test system: S. aureus USA300
Experimental: as §2

[19] = test system: P. aeruginosa PAO1
Experimental: as §2

## C[C@H](N)C(=O)N[C@H](C(=O)N[C@@H](CS)C(=O)N[C@@H](Cc1ccc(O)cc1)C(=O)N[C@@H](CS)C(=O)N[C@@H](CCCNC(=N)N)C(=O)N[C@H](C(=O)NCC(=O)N[C@@H](CCCNC(=N)N)C(=O)N[C@@H](CS)C(=O)N[C@@H](C)C(=O)N[C@H](C(=O)N[C@@H](CCCNC(=N)N)C(=O)O)[C@@H](C)O)[C@@H](C)O)[C@@H](C)O [HD-51-13] (H-ATCYCRTGRCATR-OH; N-terminus and C-terminus assumed)
[1]
  phenotype of peptide treated bacteria (TEM): bigger aggregation inside the bacteria
[2]
  antimicrobial activity in radial diffusion assay: exhibited antimicrobial properties, albeit to a lesser extent than HD-51-9

## CC[C@H](C)[C@H](NC(=O)[C@H](CCC(=O)O)NC(=O)[C@H](CS)NC(=O)[C@@H](NC(=O)CNC(=O)[C@H](CO)NC(=O)[C@H](CC(C)C)NC(=O)[C@H](CO)NC(=O)[C@H](CCC(=O)O)NC(=O)[C@H](CCCNC(=N)N)NC(=O)[C@@H](NC(=O)[C@H](C)NC(=O)[C@H](CS)NC(=O)[C@H](CCCNC(=N)N)NC(=O)CNC(=O)[C@@H](N)[C@@H](C)O)[C@@H](C)O)C(C)C)C(=O)N[C@@H](CO)C(=O)NCC(=O)N[C@@H](CCCNC(=N)N)C(=O)N[C@@H](CC(C)C)C(=O)N[C@@H](Cc1ccc(O)cc1)C(=O)N[C@@H](CCCNC(=N)N)C(=O)N[C@@H](CC(C)C)C(=O)N[C@@H](CS)C(=O)N[C@@H](CS)C(=O)N[C@@H](CCCNC(=N)N)C(=O)O [HD-57-32] (H-TGRCATRESLSGVCEISGRLYRLCCR-OH; N-terminus and C-terminus assumed)
[2]
  antimicrobial activity in radial diffusion assay: exhibited antimicrobial properties, albeit to a lesser extent than HD-51-9
[3]
  antimicrobial activity in radial diffusion assay: strong effect on the growth of every tested bacterium
[4]; 475747, 12 h
  MIC: 25 µM
[4]; E. faecium 475747, after 12 hours, listed as 7-32
  MIC: 72.2 µg/mL
[5]; 4-MRGN, 12 h
  MIC: 25 µM
[5]; A. baumannii 4-MRGN, after 12 hours, listed as 7-32
  MIC: 72.25 µg/mL
[6]; ATCC 27853, 12 h
  MIC: 50 µM
[6]; P. aeruginosa ATCC 27853, after 12 hours, listed as 7-32
  MIC: 144.5 µg/mL

## CC[C@H](C)[C@H](NC(=O)[C@H](CCC(=O)O)NC(=O)[C@H](CS)NC(=O)[C@@H](NC(=O)CNC(=O)[C@H](CO)NC(=O)[C@H](CC(C)C)NC(=O)[C@H](CO)NC(=O)[C@H](CCC(=O)O)NC(=O)[C@H](CCCNC(=N)N)NC(=O)[C@@H](NC(=O)[C@H](C)NC(=O)[C@@H](N)CS)[C@@H](C)O)C(C)C)C(=O)N[C@@H](CO)C(=O)NCC(=O)N[C@@H](CCCNC(=N)N)C(=O)N[C@@H](CC(C)C)C(=O)N[C@@H](Cc1ccc(O)cc1)C(=O)N[C@@H](CCCNC(=N)N)C(=O)N[C@@H](CC(C)C)C(=O)N[C@@H](CS)C(=O)N[C@@H](CS)C(=O)N[C@@H](CCCNC(=N)N)C(=O)O [HD-510-32] (H-CATRESLSGVCEISGRLYRLCCR-OH; N-terminus and C-terminus assumed)
[3]
  antimicrobial activity in radial diffusion assay: only minimally active or more selective in terms of different strains; also recorded: limited to the two Gram-positive bacteria

## CC[C@H](C)[C@H](NC(=O)[C@H](CCC(=O)O)NC(=O)[C@H](CS)NC(=O)[C@@H](NC(=O)CNC(=O)[C@H](CO)NC(=O)[C@H](CC(C)C)NC(=O)[C@H](CO)NC(=O)[C@@H](N)CCC(=O)O)C(C)C)C(=O)N[C@@H](CO)C(=O)NCC(=O)N[C@@H](CCCNC(=N)N)C(=O)N[C@@H](CC(C)C)C(=O)N[C@@H](Cc1ccc(O)cc1)C(=O)N[C@@H](CCCNC(=N)N)C(=O)N[C@@H](CC(C)C)C(=O)N[C@@H](CS)C(=O)N[C@@H](CS)C(=O)N[C@@H](CCCNC(=N)N)C(=O)O [HD-514-32] (H-ESLSGVCEISGRLYRLCCR-OH; N-terminus and C-terminus assumed)
[3]
  antimicrobial activity in radial diffusion assay: inactive

## CC[C@H](C)[C@@H]1NC(=O)[C@H](CC(C)C)NC(=O)[C@@H]2CSSC[C@@H]3NC(=O)[C@H](CO)NC(=O)[C@@H](NC(=O)[C@@H](N)C(C)C)CSSC[C@@H](C(=O)N[C@H](C(=O)N[C@@H](CCCNC(=N)N)C(=O)N[C@H](C(=O)O)C(C)C)[C@@H](C)O)NC(=O)[C@H](CSSC[C@H](NC(=O)[C@H](Cc4ccccc4)NC(=O)[C@H](C(C)C)NC(=O)[C@H](CC(C)C)NC(=O)[C@H](CCCNC(=N)N)NC3=O)C(=O)N[C@@H](CCCNC(=N)N)C(=O)N[C@@H](CCCNC(=N)N)C(=O)N[C@@H]([C@@H](C)O)C(=O)N[C@@H](CCC(=O)O)C(=O)N[C@@H](CC(C)C)C(=O)N[C@@H](CCCNC(=N)N)C(=O)N[C@@H](C(C)C)C(=O)NCC(=O)N[C@@H](CC(N)=O)C(=O)N2)NC(=O)[C@H](Cc2ccc(O)cc2)NC(=O)[C@H]([C@@H](C)O)NC(=O)[C@H](Cc2ccccc2)NC(=O)[C@H](CO)NC(=O)[C@H](C(C)C)NC(=O)CNC(=O)CNC1=O [HNP-4fl, reference compound] (H-VCSCRLVFCRRTELRVGNCLIGGVSFTYCCTRV-OH; disulfide 2-30, 4-19, 9-29 (inferred); N-terminus and C-terminus assumed)
[7]; 529L, 24 h
  MIC: 50 µM
[7]; C. albicans 529L, after 24 hours (Table 5)
  MIC: 185.8 µg/mL
[4]; 475747, 12 h
  MIC: 3.125 µM
[4]; E. faecium 475747, after 12 hours
  MIC: 11.6 µg/mL
[8]; P. aeruginosa XPAT1, after 12 hours
  MIC: 46.4 µg/mL
[8]; XPAT1, 12 h
  MIC: 12.5 µM
[5]; 4-MRGN, 12 h
  MIC: 12.5 µM
[5]; A. baumannii 4-MRGN, after 12 hours
  MIC: 46.4 µg/mL
[9]; E. coli JM83, after 12 hours
  MIC: 46.4 µg/mL
[9]; JM83, 12 h
  MIC: 12.5 µM
[10]; ATCC 25923, 12 h
  MIC: 6.25 µM
[10]; S. aureus ATCC25923, after 12 hours
  MIC: 23.2 µg/mL
[11]; 4-MRGN, 12 h
  MIC: 50 µM
[11]; P. aeruginosa 4-MRGN, after 12 hours
  MIC: 185.8 µg/mL
[6]; ATCC 27853, 12 h
  MIC: 6.25 µM
[6]; P. aeruginosa ATCC 27853, after 12 hours
  MIC: 23.2 µg/mL
[12]; 12 h
  MIC: 12.5 µM
[12]; Y. enterocolitica, after 12 hours
  MIC: 46.4 µg/mL
[13]; P. aeruginosa XPAT2, after 12 hours
  MIC: 46.4 µg/mL
[13]; XPAT2, 12 h
  MIC: 12.5 µM
[14]; DSM 30104, 12 h
  MIC: 100 µM
[14]; K. pneumoniae DSM30104, after 12 hours
  MIC: 371.5 µg/mL
[15]; DSM 20477, 12 h
  MIC: 6.25 µM
[15]; E. faecium DSM20477, after 12 hours
  MIC: 23.2 µg/mL
[16]
  MIC: >>>
[17]; A. baumannii DSM30007, after 12 hours
  MIC: 11.6 µg/mL
[17]; DSM 30007, 12 h
  MIC: 3.125 µM
[18]; S. aureus USA300, after 12 hours
  MIC: 23.2 µg/mL
[18]; USA300, 12 h
  MIC: 6.25 µM
[19]; P. aeruginosa PAO1, after 12 hours
  MIC: 46.4 µg/mL
[19]; PAO1, 12 h
  MIC: 12.5 µM

## CATRESLSGVCEISGRLY (listed as Homo sapiens) [HD-510-27, HD-5 fragment 10-27]
[2]
  antimicrobial activity in radial diffusion assay: did not exhibit measurable activity
[3]
  antimicrobial activity in radial diffusion assay: inactive

## LYRLCCR (listed as Homo sapiens) [HD-526-32, HD-5 fragment 26-32]
[2]
  antimicrobial activity in radial diffusion assay: exhibited antimicrobial properties, albeit to a lesser extent than HD-51-9
[3]
  antimicrobial activity in radial diffusion assay: only minimally active or more selective in terms of different strains
